From patent publication US11603349B2, “Anti-fibrotic compounds” (Certa Therapeutics Pty Ltd, priority 2017, dated 2023)
pIC50: −log10 of the molar value. Counter-ions that a name gives are not always drawn.

Key:
[1] = test system: TGF-β induced [14C]-proline incorporation in rat mesangial cells; experiment: [14C]-proline incorporation assay (collagen biosynthesis); assay type: cell-based; settings: Rattus norvegicus, Mesangial cell, 44 h, inhibition of TGF-β1 (1 ng/ml) induced [14C]-proline incorporation, IRMC cells
[2] = MTS tetrazolium reduction cell viability assay; settings: rat, rat mesangial cells (1097/IRMC cells), TGF-β1 stimulated, CC50 (μM), vs 1% DMSO vehicle

SMILES	pIC50 [1]	CC50 at 48 h [2]
COc1c(OCC2CC2)ccc(/C=C/C(=O)Nc2ccccc2C(=O)O)c1OCCN(C)C [Example 90, 2-[[(E)-3-[4-(cyclopropylmethoxy)-2-[2-(dimethylamino)ethoxy]-3-methoxy-phenyl]prop-2-enoyl]amino]benzoic acid]	4.66	> 300 µM
COc1cccc(/C=C/C(=O)Nc2cccc(C#N)c2)c1OCCN(C)C [Example 91, (E)-N-(3-cyanophenyl)-3-(2-(2-(dimethylamino)ethoxy)-3-methoxyphenyl)acrylamide]	5.08	18.1 µM
COc1ccc(/C=C/C(=O)Nc2cccc(C#N)c2)c(OCCN(C)C)c1 [Example 93, (E)-N-(3-cyanophenyl)-3-(2-(2-(dimethylamino)ethoxy)-4-methoxyphenyl)acrylamide]	5.28	17.2 µM
COc1ccc(/C=C/C(=O)Nc2ccccc2C#N)c(OCCN(C)C)c1 [Example 94, (E)-N-(2-cyanophenyl)-3-[2-[2-(dimethylamino)ethoxy]4-methoxy-phenyl]prop-2-enamide]	4.66	35 µM
COc1cc(/C=C/C(=O)Nc2ccccc2C(=O)O)ccc1N1CCN(C)CC1 [Example 97, (E)-2-(3-(3-methoxy-4-(4-methylpiperazin-1-yl)phenyl)acrylamido)benzoic acid]	4.34	> 300 µM
CCc1ccc(/C=C/C(=O)Nc2ccccc2C(=O)O)cc1OC [Example 100, (E)-2-(3-(4-ethyl-3-methoxyphenyl)acrylamido)benzoic Acid]	5.03	37 µM

More lines, in order of rising pIC50 [1], values ahead:

pIC50 [1]	SMILES	CC50 at 48 h [2]
4.31	COc1cccc(/C=C/C(=O)Nc2ccccc2C#N)c1OCCN(C)C [Example 92, (E)-N-(2-cyanophenyl)-3-(2-(2-(dimethylamino)ethoxy)-3-methoxyphenyl)acrylamide]	109 µM
4.39	CN1Cc2ccc(/C=C/C(=O)Nc3ccccc3C(=O)O)cc2C1=O [Example 108, (E)-2-(3-(2-methyl-3-oxoisoindolin-5-yl)acrylamido)benzoic acid]	> 300 µM
4.47	COc1ccc(/C=C/C(=O)Nc2ccccc2C(=O)O)c(OCc2cccnc2)c1OC [Example 96, (E)-2-(3-(3,4-dimethoxy-2-(pyridin-3-ylmethoxy)phenyl)acrylamido)benzoic Acid]	> 300 µM
4.55	COc1cc(/C=C/C(=O)Nc2ccccc2C(=O)O)ccc1N1CCOCC1 [Example 103, (E)-2-(3-(3-methoxy-4-morpholinophenyl)acrylamido)benzoic acid trifluoroacetic acid salt]	265 µM
4.62	CN1C(=O)COc2cc(/C=C/C(=O)Nc3ccccc3C(=O)O)ccc21 [Example 109, (E)-2-(3-(4-methyl-3-oxo-3,4-dihydro-2H-benzo[b][1,4]oxazin-7-yl)acrylamido)benzoic Acid]	> 300 µM
4.75	C#CCOc1c(/C=C/C(=O)Nc2ccccc2C(=O)O)ccc(OC)c1OC [Example 95, (E)-2-(3-(3,4-dimethoxy-2-(prop-2-yn-1-yloxy)phenyl)acrylamido)benzoic Acid]	111 µM
4.77	COc1ccc(/C=C/C(=O)Nc2ccccc2C(=O)O)cc1N1CCOCC1 [Example 101, (E)-2-(3-(4-methoxy-3-morpholinophenyl)acrylamido)benzoic Acid]	119 µM
5.07	CCc1cc(/C=C/C(=O)Nc2ccccc2C(=O)O)ccc1OC [Example 105, (E)-2-(3-(3-ethyl-4-methoxyphenyl)acrylamido)benzoic acid]	79.7 µM
5.80	COc1ccc(/C=C/C(=O)Nc2ccccc2C(=O)O)cc1CC1CC1 [Example 106, (E)-2-(3-(3-(cyclopropylmethyl)-4-methoxyphenyl)acrylamido)benzoic acid]	25.1 µM
